Source: patent US7897620B2, “Methods of using anti-inflammatory compounds” (Cambridge Enterprise Limited, priority 2007, dated 2011)
Like-named read-outs stand apart in the source and are kept apart here.

Legend:
[1] = system: LPS-induced TNF-α production; assay: Sub-lethal LPS-induced endotoxemia, serum TNF-α by ELISA; assay type: in vivo, mouse; details: for inhibition of LPS-induced TNF-α production: mouse, reference agents, previously shown by applicant, dose not stated
Description: In this assay, mice are given a non-specific pro-inflammatory challenge using bacterial endotoxin (LPS), and the extent of the systemic inflammatory response (measured by serum levels of the central pro-inflammatory cytokine TNF-α, which is essentially absent from the blood under normal conditions, but is rapidly elevated in response to a wide range of inflammatory stimuli).
Mice (in groups of 6) were pretreated with various doses of each compound, either by the subcutaneous route 30 mins prior to LPS challenge, or by the oral route (via gavage) 60 mins prior to LPS. The mice were then challenged with an intraperitoneal injection of 750 μg of bacterial LPS and sacrificed 3 hours later. Serum was prepared from a terminal bleed by cardiac puncture, and the concentration of TNF-α is determined by ELISA (R&D Systems). In each experiment, a group of 6 mice receive no LPS to act as a negative control, and a second group receive only LPS (with no candidate inhibitor). The level of TNF-α in serum from these animals, which received LPS without drug pre-treatment, is arbitrarily set to 100% (and is typically of the order of 6,000 pg/ml, compared with levels of <10 pg/ml among the negative control group). […]

[2] = Identification of the primary metabolites in pooled 24 h urine (LC-MS-MS full scan); assay type: in vivo; details: rat, single oral dose 3 mg/kg in 1% CMC, qualitative
Description: Urine was collected from rats exposed to a single oral dose (3 mg/kg in 1% CMC) of each compound over a 24 hour period in metabolic cages. The pooled urine sample was then subjected to full scan mass spectral analysis, using the same LC-MS conditions as described in example 1 above. Further MS-MS analysis of the product ions was then performed, and likely fragmentations/re-arrangements assigned from the publicly available Metabolite ID database.
For the major metabolites, the assigned structures were confirmed by synthesis of authentic samples, using methods well known in the art, which were subject to LC-MS-MS analysis under the same conditions as the urine samples.
Note that metabolite ID studies provide only qualitative estimates of the relative amounts of the different metabolites present, and separately validated assays with appropriate internal standards would be required to quantitate each metabolite species.
The detected metabolites, in rank order of concentration detected are shown in FIG. 2 for the five compounds analysed. It is important to note that the methodology used here is not necessarily exhaustive, and further (particularly minor) metabolites may also be present which were below the detection limits for the methods applied here. As a general rule, it can be assumed that metabolites representing 10% or more of the injected dose will be detected (though not necessarily structurally identified) by the methods used here).

[3] = Pharmacokinetics following a single dose in rat (LC-MS/MS of blood, one-compartment model); assay type: in vivo; details: rat, averaged across three rats
Description: Compounds were administered as a single dose (either 1 mg/kg bodyweight in 5% DMSO via the intravenous route or 3 mg/kg in 1% carboxymethylcellulose via the oral route) to three adult rats (using different rats for each compound and each route of administration).
Blood was then sampled at various time points (including just prior to dose administration) out to 24 hrs post dose, and the level of the various compounds was assessed using a validated LC-MS/MS assay. Briefly, 3-5 μl of the deproteinised sample was applied to a Waters Atlantis (C18 20×2.1 mm, 3 μm bead size) reverse phase chromatography column equilibrated in 0.1% formic acid in 95:5 water:actetonitrile. Over 3.5 minutes bound material was gradient eluted reaching 0.1% formic acid in 5:95 water:acetonitrile, followed by a step gradient back to 0.1% formic acid in 95:5 water:acetonitrile. The column eluent was then directed to an Applied Biosystems API 4000/3200 QTrap MS/MS mass spectrometer, with a Turbolonspray™ ion source operating in positive ion mode. The interface temperature was set at 650° C., with a 40 ms dwell time for each MRM transition, monitoring the following ions:
The internal standard in each determination was the related compound (S)-3-(2′,2′-dimethylpropanoylamino)-caprolactam, which was spiked into the sample prior to deproteinization. The lower limit of quantitation (LLOQ) for this assay was 2.4 ng/ml for each compound except (I′), where it was 38.1 ng/ml.
Following LC-MS/MS analysis of each collected sample, the pharmacokinetic disposition of the compound was modelled using Kinetica software, a well known software package for such applications.

[4] = system: MCP-1 induced THP-1 cell migration; assay: ChemoTx transwell migration assay, MCP-1 induced migration of THP-1 cells; assay type: cell-based; details: Homo sapiens
Description: In principle, this assay consists of two chambers separated by a porous membrane. The chemoattractant is placed in the lower compartment and the cells are placed in the upper compartment. After incubation for a period at 37° C. the cells move towards the chemoattractant, and the number of cells in the lower compartment is proportional to the chemoattractant activity (relative to a series of controls).
The THP-1 cell line (European Cell Culture Collection) were used as the leukocyte cell population.
First, the cell suspension to be placed in the upper compartment is prepared. The THP-1 cells are pelleted by centrifugation (770×g; 4 mins) and washed with Geys Balanced Salt Solution with 1 mg/ml BSA (GBSS+BSA). This wash is then repeated, and the cells repelleted before being resuspended in a small volume of GBSS+BSA for counting, for example using a standard haemocytometer.
The volume of GBSS+BSA is then adjusted depending on the number of cells present so that the cells are at final density of 4.45×10^6 cells per ml of GBSS+BSA. This ensures that there are […] THP-1 cells in each 25 μl of the solution that will be placed in the upper chamber of the plate.
To test a single compound for its ability to inhibit chemokine induced migration, it is necessary to prepare two lots of cells. The suspension of THP-1 cells at 4.45×10^6 cells/ml is divided into two pots. To one pot the inhibitor under test is added at an appropriate final concentration, in an appropriate vehicle (for example at 1 μM in not more than 1% DMSO). To the second pot an equal volume of GBSS+BSA plus vehicle as appropriate (e.g. not more than 1% DMSO) is added to act as a control.
Next, the chemoattractant solution to be placed in the lower compartment is prepared. For example, MCP-1 is diluted in GBSS+BSA to give a final concentration of 25 ng/ml. This is divided into two pots, as for the cell suspension. To one pot, the test compound is added to the same final concentration as was added to the cell suspension, while to the other pot an equal volume of GBSS+BSA plus vehicle as appropriate (e,g. not more than 1% DMSO) is added. Alternatively, other chemokines may be used (SDF-1α at 7.5 ng/ml; RANTES at 50 ng/ml; IL-8 at 10 ng/ml using neutrophils as the target cell population). In each case it is important to determine (in a separate experiment) the concentration of each chemokine which causes maximal stimulation of migration of the chosen target leukocyte population. This maximal concentration must then be used in experiments to test the inhibitory activity of the compounds of the invention.
Once the chemoattractant solutions for the lower wells and cell solutions for the upper chambers have been prepared, the migration chamber should be assembled. Place 29 μl of the appropriate chemoattractant solution into the lower well of the chamber. Assays should be performed with at least triplicate determinations of each condition. Once all the lower chambers have been filled, apply the porous membrane to the chamber in accordance with the manufacturer's instructions. Finally, apply 25 μl of the appropriate cell solution to each upper chamber. A plastic lid is placed over the entire apparatus to prevent evaporation.
The assembled chamber is incubated at 37° C., 5% CO2, for 2 hours. A suspension of cells in GBSS+BSA is also incubated under identical conditions in a tube: these cells will be used to construct a standard curve for determining the number of cells that have migrated to the lower chamber under each condition.
At the end of the incubation, the liquid cell suspension is gently removed from the upper chamber, and 20 μl of ice-cold 20 mM EDTA in PBS is added to the upper chamber, and the apparatus is incubated at 4° C. for 15 mins. This procedure causes any cells adhering to the underside of the membrane to fall into the lower chamber.
After this incubation the filter is carefully flushed with GBSS+BSA to wash off the EDTA, and then the filter is removed. […]

[5] = system: S. Typhinurium (TA 102, TA98 and TA 100); assay: AMES test, revertant colony formation; assay type: cell-based
Description: The five compounds were subjected to a standard AMES test to assess likely genotoxicity. Three His-auxotroph strains of S. Typhinurium (TA 102, TA98 and TA 100) were treated with each of the compounds at 5 concentrations (up to 5 mg/ml) in the presence and absence of S9 rat liver microsomal metabolising system. The number of revertant colonies was then determined by plating on trace-His minimal media.

[6] = system: lung leukocyte recruitment and T-helper cell polarisation; assay: Ovalbumin-induced lung inflammation model of asthma (BAL leukocyte count, splenocyte Th1/Th2 ratio); assay type: in vivo, Brown Norway rat; details: rat, 30 mg/kg daily oral
Description: Adult Brown Norway rats (200-300 g body weight; n=10 per group) were sensitised by a single intraperitoneal injection of 0.1 mg Ovalbumin on day 0. Each rat then received an intratracheal challenge with a solution of 1% ovalbumin (w/v) on day 8, and with 2% ovalbumin (w/v) on days 15, 18 and 21. The animals were then sacrificed 3 hours after the final challenge on day 21. Note that ovalbumin (Sigma; purest available grade) was made endotoxin-free by passage over EndoTrap™ Red columns (purchased from Cambrex; used in accordance with the manufacturer's instructions), and the endotoxin level was confirmed as <5 EU/mg protein using the LAL assay (QCL-1000™; Cambrex; performed in accordance with the manufacturer's instructions; 1 mg of standard endotoxin contains ˜900,000 EU/mg). […]
On sacrifice, total lung leukocyate recruitment was assessed by performing a broncheoalveolar lavage (BAL) using 4 lots of 3 ml sterile phosphate-buffered saline introduced through a tracheal cannula. For each animal, the BAL washes were combined, and the total cell population counted (using a haemocytometer). […]
The spleen was also removed from each […] and placed in RPMI+10% FCS+antibiotics. […] The resulting cell suspension was then centrifuged (328 g; 5 mins) and washed in RPMI+10% FCS+antibiotics, before being resuspended in fresh media and counted using a haemocytometer. […]

O=C1CCC(N2C(=O)c3ccccc3C2=O)C(=O)N1 (stereo not drawn) [thalidomide]
inhibition of LPS-induced TNF-α production [1]: about 60%

C=CCCCCCCCCC(=O)N[C@H]1CCC(=O)NC1=O [NR58,4]
fold less potent in vivo than 2′,2′-dimethylpropanoylamino)-tetrahydropyridin-2-one ([1]; models of acute inflammation such as LPS-induced endotoxemia): at least 250 fold

CC1(C(=O)N[C@H]2CCCCNC2=O)CCCCC1 [(III), 3-(1′-methylcyclohexylcarbonylamino)-caprolactam]
major metabolite / route of metabolism detected in urine [2]: cytochrome P450-mediated hydroxylation
AUC(0-inf) ([3]; blood, single oral dose 3 mg/kg in 1% CMC, read-out: Exposure (AUC 0->infinity) (converted)): 0.0483 µg·h/mL
F (%) oral bioavailability ([3]; 1 mg/kg iv in 5% DMSO and 3 mg/kg oral in 1% CMC, one-compartment model): 5%
Vss (L/kg) volume of distribution ([3]; one-compartment model): 0.6 L/kg
clearance ([3]; one-compartment model): 3.3 L/h/kg
t½ (mins) dominant plasma half-life ([3]; one-compartment model): 11 min
EC50 ([4]; THP-1 cells, maximal dose of chemoattractant, read-out: ED50 MCP-1): 0.08 nM
EC50 ([4]; THP-1 migration inhibition, Table 5, read-out: Functional ED50 versus MCP-1): 0.08 nM
Revertant colony formation TA98 + S9 ([5]; TA98 with S9, top dose 5 mg/ml): 0.55
Revertant colony formation TA98 ([5]; TA98 without S9, top dose 5 mg/ml): 0.68
Revertant colony formation TA100 + S9 ([5]; TA100 with S9 rat liver microsomal system, top dose 5 mg/ml): 0.81
Revertant colony formation TA100 ([5]; TA100 without S9, top dose 5 mg/ml): 0.79
Revertant colony formation TA102 + S9 ([5]; TA102 with S9, top dose 5 mg/ml): 0.88
Revertant colony formation TA102 ([5]; TA102 without S9, top dose 5 mg/ml): 0.69

C[C@@H]1C[C@H]2[C@@H]3CCC4=CC(=O)C=C[C@]4(C)[C@@]3(F)[C@@H](O)C[C@]2(C)[C@@]1(O)C(=O)CO [dexamethasone]
inhibition of LPS-induced TNF-α production [1]: at least 90%

CC(C)(O)c1ccccc1CC[C@@H](SCC1(CC(=O)O)CC1)c1cccc(/C=C/c2ccc3ccc(Cl)cc3n2)c1 [monteleukast]
number of leukocytes in the BAL washes [6]: significantly reduced the number of leukocytes in the BAL washes
